From US20250129067A1 (Progentos Therapeutics, Inc., priority 2021, published 2025)

Columns and labels:
PDGFRα = PDGFRα (Homo sapiens (Human), UniProt P16234); experiment: PDGFRα kinase enzyme assay (Promega PDGFRα Kinase Enzyme System, ADP-Glo); format: biochemical; details: 11-point dose response, 10,000 nM to 0.169 nM; 150 uM ATP; BLQ = below limit of quantitation; read-out: IC50 Values on PDGFRα Kinase Inhibition, IC50
Outline: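 Purified PDGFRα protein (20 ng) reacted with test compound per the Promega kinase system protocol. ADP formed was measured by ADP-Glo luminescence against a standard curve, giving IC50.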

[1] = test system: Oligodendrocyte progenitor cells (OPCs); experiment: In vitro OPC differentiation assay, GPR17 expression (immunocytochemistry); details: 72 hours, fold change over vehicle; for GPR17 Fold Induction (Over Vehicle; 3 μM): 3 μM (10× concentration, final 0.3 μM)

Sequence of PDGFRα (P16234 24-1089): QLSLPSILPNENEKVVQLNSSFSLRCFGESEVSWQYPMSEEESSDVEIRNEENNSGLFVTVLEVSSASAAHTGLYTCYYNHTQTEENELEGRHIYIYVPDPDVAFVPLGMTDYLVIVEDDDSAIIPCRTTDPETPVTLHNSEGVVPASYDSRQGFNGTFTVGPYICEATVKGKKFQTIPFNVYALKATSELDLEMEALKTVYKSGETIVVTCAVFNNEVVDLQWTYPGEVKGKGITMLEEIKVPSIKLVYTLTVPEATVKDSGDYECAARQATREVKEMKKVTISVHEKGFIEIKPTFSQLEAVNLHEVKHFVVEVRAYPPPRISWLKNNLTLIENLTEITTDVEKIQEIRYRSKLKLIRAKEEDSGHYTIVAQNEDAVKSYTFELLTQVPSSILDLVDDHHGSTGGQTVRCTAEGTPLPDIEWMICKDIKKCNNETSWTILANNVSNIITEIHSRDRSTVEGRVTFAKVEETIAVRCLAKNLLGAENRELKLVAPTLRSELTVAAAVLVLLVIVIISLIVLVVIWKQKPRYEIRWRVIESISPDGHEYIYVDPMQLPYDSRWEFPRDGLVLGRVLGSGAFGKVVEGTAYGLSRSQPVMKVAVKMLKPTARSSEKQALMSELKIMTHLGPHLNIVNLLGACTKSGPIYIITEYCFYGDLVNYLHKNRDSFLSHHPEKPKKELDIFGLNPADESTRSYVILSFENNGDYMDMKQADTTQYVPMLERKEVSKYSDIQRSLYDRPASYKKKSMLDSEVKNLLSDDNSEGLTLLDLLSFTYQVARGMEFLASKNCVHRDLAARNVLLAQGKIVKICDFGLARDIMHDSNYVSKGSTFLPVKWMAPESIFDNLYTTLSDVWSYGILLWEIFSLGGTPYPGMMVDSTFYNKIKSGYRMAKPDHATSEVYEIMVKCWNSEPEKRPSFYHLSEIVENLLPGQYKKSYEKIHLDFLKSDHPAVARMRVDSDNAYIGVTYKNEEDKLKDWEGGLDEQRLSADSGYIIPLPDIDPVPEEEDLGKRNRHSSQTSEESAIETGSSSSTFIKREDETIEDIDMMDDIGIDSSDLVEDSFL

Structure (SMILES) | IC50 (PDGFRα) [µM] | GPR17 Fold Induction (Over Vehicle; 3 μM) [1] | GPR17 Fold Induction (Over Vehicle; 5 μM) ([1]; 5 μM (10× concentration, final 0.5 μM))
Cn1cc(-c2ccc3c(N4CCN(c5ncc(Cc6cocn6)cn5)CC4)cnn3c2)cn1 [Compound 171, 4-((2-(4-(6-(1-methyl-1H-pyrazol-4-yl)pyrazolo[1,5-a]pyridin-3-yl)piperazin-1-yl)pyrimidin-5-yl)methyl)oxazole] | > 10 | 5.33 | 
COc1cccc(-c2ccc3c(N4CCN(C(=O)OC(C)(C)C)CC4)cnn3c2)c1 [Compound 211, tert-butyl 4-(6-(3-methoxyphenyl)pyrazolo[1,5-a]pyridin-3-yl)piperazine-1-carboxylate] | 7.38 | 2.54 | 
Cn1cc(-c2ccc3c(N4CCC(C(=O)OCc5ccccc5)CC4)cnn3c2)cn1 [Compound 145, benzyl 1-(6-(1-methyl-1H-pyrazol-4-yl)pyrazolo[1,5-a]pyridin-3-yl)piperidine-4-carboxylate] | 6.97 | 1.73 | 
CC(C)(C)OC(=O)N1CCCN(c2cnc3nc(-c4cccnc4)ccn23)CC1 [Compound 106] | > 10 | 0.72 | 
CC(C)OC(=O)N1CCN(c2cnn3cc(-c4cnn(C)c4)ccc23)CC1 [Compound 31, isopropyl 4-[6-(1-methyl-1H-pyrazol-4-yl)pyrazolo[1,5-a]pyridin-3-yl]piperazine-1-carboxylate] | 0.244 | 9.76 | 6.22
CN(Cc1ccccc1)C(=O)N1CCN(c2cnn3cc(-c4cnn(C)c4)ccc23)CC1 [Compound 162, N-benzyl-N-methyl-4-(6-(1-methyl-1H-pyrazol-4-yl)pyrazolo[1,5-a]pyridin-3-yl)piperazine-1-carboxamide] | 1.48 | 2.90 | 
CCC(O)c1ccc2c(N3CCN(C(=O)OC(C)(C)C)CC3)cnn2c1 (stereo not drawn) [Compound 298, tert-butyl 4-(6-(1-hydroxypropyl)pyrazolo[1,5-a]pyridin-3-yl)piperazine-1-carboxylate] | > 10 | 1.56 | 
Cn1cc(-c2ccc3c(C4CCN(c5ncc(Cc6ccccc6)cn5)C4)cnn3c2)cn1 (stereo not drawn) [Compound 75, 3-[1-(5-benzylpyrimidin-2-yl)pyrrolidin-3-yl]-6-(1-methyl-1H-pyrazol-4-yl)pyrazolo[1,5-a]pyridine] | 6.59 | 3.34 | 
CC(C)(C)OC(=O)N1CCN(c2cnn3cc(-c4cncnc4)ccc23)CC1 [Compound 219, tert-butyl 4-(6-(pyrimidin-5-yl)pyrazolo[1,5-a]pyridin-3-yl)piperazine-1-carboxylate] | > 10 | 1.42 | 
C[C@@H](OC(=O)N1CCN(c2cnn3cc(-c4cnn(C)c4)ccc23)CC1)c1ccccc1F [Compound 81, (1R)-1-(2-Fluorophenyl)ethyl 4-[6-(1-methyl-1H-pyrazol-4-yl)pyrazolo[1,5-a]pyridin-3-yl]piperazine-1-carboxylate] | 0.0972 | 6.74 | 
Cn1cc(-c2ccc3c(C4=CCC(CCc5ccccc5)CC4)cnn3c2)cn1 (stereo not drawn) [Compound 242, 6-(1-methyl-1H-pyrazol-4-yl)-3-(4-phenethylcyclohex-1-en-1-yl)pyrazolo[1,5-a]pyridine] | > 10 | 2.24 | 
CC1CN(c2cnn3cc(-c4cnn(C)c4)ccc23)CCN1c1ncc(Cc2ccccc2)cn1 (stereo not drawn) [Compound 143, 3-(4-(5-benzylpyrimidin-2-yl)-3-methylpiperazin-1-yl)-6-(1-methyl-1H-pyrazol-4-yl)pyrazolo[1,5-a]pyridine] | 0.616 | 3.89 | 
Cn1cc(-c2ccc3c(N4CCN(c5nc(Cc6ccccc6)ns5)CC4)cnn3c2)cn1 [Compound 245, 3-benzyl-5-(4-(6-(1-methyl-1H-pyrazol-4-yl)pyrazolo[1,5-a]pyridin-3-yl)piperazin-1-yl)-1,2,4-thiadiazole] | > 10 | 5.22 | 
